From ChEMBL document CHEMBL4011588, “Design, synthesis, and biological evaluation of novel 4-anilinoquinazoline derivatives bearing amino acid moiety as potential EGFR kinase inhibitors” (Eur J Med Chem, 2017)
Calls of active or inactive are those of the source. The calls are words filed in the database; no cut-off is given here.

Columns and labels:
[1] = tested on: HepG2; assay: Antiproliferative activity against human HepG2 cells after 72 hrs by sulforhodamine B assay; type: functional, cell-based; conditions: HepG2, 72 h
[2] = target: Aurora kinase B (Homo sapiens, UniProt Q96GD4); assay: Inhibition of Aurora B (unknown origin) measured after 40 mins by Kinase Glo luminescence assay
[3] = target: Epidermal growth factor receptor (Homo sapiens, UniProt P00533); assay: Inhibition of EGFR (unknown origin) measured after 40 mins by Kinase Glo luminescence assay
[4] = tested on: HepG2; assay: Induction of apoptosis in human HepG2 cells assessed as early apoptotic cells at 10 uM after 24 to 72 hrs by Annexin V-FITC/propidium iodide staining based flow cytometric method (reference value: 1.28%); type: functional
[5] = tested on: HepG2; assay: Induction of apoptosis in human HepG2 cells assessed as late apoptotic cells at 10 uM after 24 to 72 hrs by Annexin V-FITC/propidium iodide staining based flow cytometric method (reference value: 4.56%); type: functional
[6] = target: Dual specificity mitogen-activated protein kinase kinase; MEK1/2 (Homo sapiens, UniProt P36507+Q02750); assay: Inhibition of MEK (unknown origin) measured after 40 mins by Kinase Glo luminescence assay
[7] = target: RAF proto-oncogene serine/threonine-protein kinase (Homo sapiens, UniProt P04049); assay: Inhibition of RAF (unknown origin) measured after 40 mins by Kinase Glo luminescence assay
[8] = target: Hepatocyte growth factor receptor (Homo sapiens, UniProt P08581); assay: Inhibition of c-MET (unknown origin) measured after 40 mins by Kinase Glo luminescence assay
[9] = target: Vascular endothelial growth factor receptor 2 (Homo sapiens, UniProt P35968); assay: Inhibition of VEGFR2 (unknown origin) measured after 40 mins by Kinase Glo luminescence assay
[10] = tested on: HepG2; assay: Induction of apoptosis in human HepG2 cells assessed as late apoptotic cells at 2 uM after 24 to 72 hrs by Annexin V-FITC/propidium iodide staining based flow cytometric method (reference value: 4.56%); type: functional
[11] = tested on: HepG2; assay: Induction of apoptosis in human HepG2 cells assessed as decrease in mitochondrial membrane potential after 15 mins to 24 hrs by JC1 staining based fluorescence microscopic method; type: functional, cell-based
[12] = tested on: HepG2; assay: Induction of apoptosis in human HepG2 cells assessed as increase in cleaved caspase-3 level at 5 to 10 uM after 30 mins to 24 hrs by Western blot method; type: functional, cell-based
[13] = tested on: HepG2; assay: Induction of apoptosis in human HepG2 cells assessed as early apoptotic cells at 2 uM after 24 to 72 hrs by Annexin V-FITC/propidium iodide staining based flow cytometric method (reference value: 1.28%); type: functional
[14] = tested on: HepG2; assay: Induction of apoptosis in human HepG2 cells assessed as appearance of apoptotic bodies at 2 to 10 uM after 15 mins to 24 hrs by Hoechst 33258 staining based fluorescence microscopic method; type: functional, cell-based
[15] = tested on: HepG2; assay: Induction of apoptosis in human HepG2 cells assessed as decrease in Bcl-2 expression at 2 to 10 uM after 30 mins to 24 hrs by Western blot method; type: functional, cell-based
[16] = tested on: HepG2; assay: Induction of apoptosis in human HepG2 cells assessed as late apoptotic cells at 5 uM after 24 to 72 hrs by Annexin V-FITC/propidium iodide staining based flow cytometric method (reference value: 4.56%); type: functional
[17] = tested on: HepG2; assay: Induction of apoptosis in human HepG2 cells after 24 to 72 hrs by Annexin V-FITC/propidium iodide staining based flow cytometric method; type: functional, cell-based
[18] = tested on: HepG2; assay: Induction of apoptosis in human HepG2 cells assessed as nuclear chromatin condensation at 2 to 10 uM after 15 mins to 24 hrs by Hoechst 33258 staining based fluorescence microscopic method; type: functional, cell-based
[19] = tested on: HepG2; assay: Induction of apoptosis in human HepG2 cells assessed as increase in Bax expression at 2 to 10 uM after 30 mins to 24 hrs by Western blot method; type: functional, cell-based
[20] = tested on: HepG2; assay: Induction of apoptosis in human HepG2 cells assessed as increase in cytochrome-c expression at 10 uM after 30 mins to 24 hrs by Western blot method; type: functional, cell-based
[21] = tested on: HepG2; assay: Induction of apoptosis in human HepG2 cells assessed as early apoptotic cells at 5 uM after 24 to 72 hrs by Annexin V-FITC/propidium iodide staining based flow cytometric method (reference value: 1.28%); type: functional

Sequence of Epidermal growth factor receptor (P00533 whole entry): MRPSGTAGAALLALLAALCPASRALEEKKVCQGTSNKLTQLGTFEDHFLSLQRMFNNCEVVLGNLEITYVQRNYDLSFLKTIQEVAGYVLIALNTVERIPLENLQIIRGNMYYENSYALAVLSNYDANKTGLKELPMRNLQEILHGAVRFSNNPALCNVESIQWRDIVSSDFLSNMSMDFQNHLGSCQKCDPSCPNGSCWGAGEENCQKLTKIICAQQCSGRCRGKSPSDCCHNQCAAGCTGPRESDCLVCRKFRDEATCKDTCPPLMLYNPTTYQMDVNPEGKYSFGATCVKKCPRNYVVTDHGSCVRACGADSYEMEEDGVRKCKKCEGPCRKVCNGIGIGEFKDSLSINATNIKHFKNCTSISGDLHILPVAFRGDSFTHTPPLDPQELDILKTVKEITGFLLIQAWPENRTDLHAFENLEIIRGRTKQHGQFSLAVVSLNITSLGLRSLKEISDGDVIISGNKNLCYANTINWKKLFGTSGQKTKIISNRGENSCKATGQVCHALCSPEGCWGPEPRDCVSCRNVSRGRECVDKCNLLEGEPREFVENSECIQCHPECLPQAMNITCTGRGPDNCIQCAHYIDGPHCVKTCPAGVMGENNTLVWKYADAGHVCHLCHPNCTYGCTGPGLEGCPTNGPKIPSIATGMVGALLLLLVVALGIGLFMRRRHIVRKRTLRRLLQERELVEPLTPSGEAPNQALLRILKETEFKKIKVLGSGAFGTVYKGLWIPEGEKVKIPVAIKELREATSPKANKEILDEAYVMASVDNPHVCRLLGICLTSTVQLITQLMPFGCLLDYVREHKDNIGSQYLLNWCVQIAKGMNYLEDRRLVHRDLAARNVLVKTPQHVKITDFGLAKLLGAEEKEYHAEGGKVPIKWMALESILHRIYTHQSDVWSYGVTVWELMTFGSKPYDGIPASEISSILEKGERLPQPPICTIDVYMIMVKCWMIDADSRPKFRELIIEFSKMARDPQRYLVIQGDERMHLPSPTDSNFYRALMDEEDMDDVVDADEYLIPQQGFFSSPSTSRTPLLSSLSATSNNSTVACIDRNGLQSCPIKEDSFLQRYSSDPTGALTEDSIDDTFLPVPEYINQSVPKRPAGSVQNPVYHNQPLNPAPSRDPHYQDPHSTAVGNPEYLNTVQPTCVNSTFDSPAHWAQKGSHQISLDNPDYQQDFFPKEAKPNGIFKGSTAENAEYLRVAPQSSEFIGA
Sequence of Aurora kinase B (Q96GD4 whole entry): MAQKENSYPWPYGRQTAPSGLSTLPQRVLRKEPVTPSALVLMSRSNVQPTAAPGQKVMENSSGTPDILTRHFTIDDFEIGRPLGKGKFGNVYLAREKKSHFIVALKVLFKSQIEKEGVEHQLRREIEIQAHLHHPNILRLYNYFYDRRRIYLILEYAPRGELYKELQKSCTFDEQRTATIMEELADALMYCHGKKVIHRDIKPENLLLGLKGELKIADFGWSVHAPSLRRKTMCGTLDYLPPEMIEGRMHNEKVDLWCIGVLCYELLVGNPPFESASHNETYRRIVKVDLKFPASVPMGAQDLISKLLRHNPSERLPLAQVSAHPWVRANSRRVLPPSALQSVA
Sequence of Hepatocyte growth factor receptor (P08581 whole entry): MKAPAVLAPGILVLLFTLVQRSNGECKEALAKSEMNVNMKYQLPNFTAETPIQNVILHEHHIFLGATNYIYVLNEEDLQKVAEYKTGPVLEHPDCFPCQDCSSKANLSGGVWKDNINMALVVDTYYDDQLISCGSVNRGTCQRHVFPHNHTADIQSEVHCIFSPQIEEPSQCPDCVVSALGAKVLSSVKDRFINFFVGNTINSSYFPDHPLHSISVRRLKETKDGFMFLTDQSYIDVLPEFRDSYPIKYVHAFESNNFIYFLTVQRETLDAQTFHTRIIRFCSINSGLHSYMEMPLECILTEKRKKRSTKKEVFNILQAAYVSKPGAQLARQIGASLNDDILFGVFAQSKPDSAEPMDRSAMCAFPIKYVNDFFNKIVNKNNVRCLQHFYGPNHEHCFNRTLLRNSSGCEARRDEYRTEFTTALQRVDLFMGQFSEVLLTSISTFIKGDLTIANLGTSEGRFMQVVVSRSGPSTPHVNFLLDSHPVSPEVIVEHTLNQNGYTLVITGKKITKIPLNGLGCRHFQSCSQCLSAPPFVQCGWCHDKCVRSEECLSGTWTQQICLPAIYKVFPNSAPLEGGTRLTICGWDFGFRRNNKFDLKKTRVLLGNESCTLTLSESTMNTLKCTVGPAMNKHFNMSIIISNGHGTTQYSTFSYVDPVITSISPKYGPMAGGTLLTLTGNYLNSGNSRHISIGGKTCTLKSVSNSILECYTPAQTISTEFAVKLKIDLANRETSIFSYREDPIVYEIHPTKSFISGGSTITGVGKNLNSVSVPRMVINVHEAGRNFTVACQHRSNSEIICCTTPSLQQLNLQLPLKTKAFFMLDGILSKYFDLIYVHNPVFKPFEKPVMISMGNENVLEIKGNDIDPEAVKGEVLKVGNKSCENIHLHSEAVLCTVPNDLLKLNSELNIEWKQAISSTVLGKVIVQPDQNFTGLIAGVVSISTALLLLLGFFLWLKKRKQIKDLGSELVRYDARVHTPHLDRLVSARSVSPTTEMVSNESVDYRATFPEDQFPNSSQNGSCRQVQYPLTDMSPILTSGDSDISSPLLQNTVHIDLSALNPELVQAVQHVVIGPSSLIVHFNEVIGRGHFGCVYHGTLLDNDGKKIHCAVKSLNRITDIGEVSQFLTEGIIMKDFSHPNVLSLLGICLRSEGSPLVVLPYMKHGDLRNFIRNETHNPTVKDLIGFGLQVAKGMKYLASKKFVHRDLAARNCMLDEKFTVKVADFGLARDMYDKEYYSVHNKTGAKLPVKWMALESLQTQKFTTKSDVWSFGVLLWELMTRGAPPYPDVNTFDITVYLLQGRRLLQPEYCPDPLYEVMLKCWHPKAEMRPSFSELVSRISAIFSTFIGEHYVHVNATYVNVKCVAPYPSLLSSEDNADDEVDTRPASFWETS
Sequence of Vascular endothelial growth factor receptor 2 (P35968 whole entry): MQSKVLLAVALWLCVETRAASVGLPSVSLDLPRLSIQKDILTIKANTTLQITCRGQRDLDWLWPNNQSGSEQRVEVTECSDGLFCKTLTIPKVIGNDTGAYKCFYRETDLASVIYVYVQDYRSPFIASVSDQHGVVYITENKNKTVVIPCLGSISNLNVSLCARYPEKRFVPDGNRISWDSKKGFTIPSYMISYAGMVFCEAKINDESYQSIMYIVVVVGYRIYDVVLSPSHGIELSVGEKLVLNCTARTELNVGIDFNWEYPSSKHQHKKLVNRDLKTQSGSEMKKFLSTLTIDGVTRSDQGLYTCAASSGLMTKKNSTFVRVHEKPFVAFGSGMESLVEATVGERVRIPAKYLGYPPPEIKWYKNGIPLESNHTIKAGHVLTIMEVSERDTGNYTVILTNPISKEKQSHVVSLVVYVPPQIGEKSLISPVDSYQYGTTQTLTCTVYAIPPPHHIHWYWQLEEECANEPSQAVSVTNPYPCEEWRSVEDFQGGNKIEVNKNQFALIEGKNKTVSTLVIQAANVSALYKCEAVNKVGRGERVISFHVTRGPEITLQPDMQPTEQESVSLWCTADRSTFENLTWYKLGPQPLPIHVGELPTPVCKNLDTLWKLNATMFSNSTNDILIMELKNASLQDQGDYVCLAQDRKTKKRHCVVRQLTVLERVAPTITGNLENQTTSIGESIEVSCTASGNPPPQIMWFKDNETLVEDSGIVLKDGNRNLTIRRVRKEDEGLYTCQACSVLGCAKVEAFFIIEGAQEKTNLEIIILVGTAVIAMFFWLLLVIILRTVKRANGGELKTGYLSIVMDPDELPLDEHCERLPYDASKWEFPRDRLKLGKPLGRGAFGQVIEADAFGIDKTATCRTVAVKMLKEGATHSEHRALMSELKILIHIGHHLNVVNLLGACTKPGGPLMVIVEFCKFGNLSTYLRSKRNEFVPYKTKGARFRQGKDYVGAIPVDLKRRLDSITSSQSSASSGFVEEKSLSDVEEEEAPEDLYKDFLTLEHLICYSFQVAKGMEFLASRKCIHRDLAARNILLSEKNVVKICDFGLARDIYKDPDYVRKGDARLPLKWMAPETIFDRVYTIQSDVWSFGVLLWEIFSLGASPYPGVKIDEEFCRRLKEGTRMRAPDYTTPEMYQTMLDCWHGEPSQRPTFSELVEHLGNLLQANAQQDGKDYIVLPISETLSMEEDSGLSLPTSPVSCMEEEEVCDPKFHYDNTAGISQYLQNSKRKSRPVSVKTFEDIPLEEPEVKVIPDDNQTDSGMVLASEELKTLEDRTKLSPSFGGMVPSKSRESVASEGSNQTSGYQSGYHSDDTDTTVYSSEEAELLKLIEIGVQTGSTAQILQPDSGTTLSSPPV
Sequence of RAF proto-oncogene serine/threonine-protein kinase (P04049 whole entry): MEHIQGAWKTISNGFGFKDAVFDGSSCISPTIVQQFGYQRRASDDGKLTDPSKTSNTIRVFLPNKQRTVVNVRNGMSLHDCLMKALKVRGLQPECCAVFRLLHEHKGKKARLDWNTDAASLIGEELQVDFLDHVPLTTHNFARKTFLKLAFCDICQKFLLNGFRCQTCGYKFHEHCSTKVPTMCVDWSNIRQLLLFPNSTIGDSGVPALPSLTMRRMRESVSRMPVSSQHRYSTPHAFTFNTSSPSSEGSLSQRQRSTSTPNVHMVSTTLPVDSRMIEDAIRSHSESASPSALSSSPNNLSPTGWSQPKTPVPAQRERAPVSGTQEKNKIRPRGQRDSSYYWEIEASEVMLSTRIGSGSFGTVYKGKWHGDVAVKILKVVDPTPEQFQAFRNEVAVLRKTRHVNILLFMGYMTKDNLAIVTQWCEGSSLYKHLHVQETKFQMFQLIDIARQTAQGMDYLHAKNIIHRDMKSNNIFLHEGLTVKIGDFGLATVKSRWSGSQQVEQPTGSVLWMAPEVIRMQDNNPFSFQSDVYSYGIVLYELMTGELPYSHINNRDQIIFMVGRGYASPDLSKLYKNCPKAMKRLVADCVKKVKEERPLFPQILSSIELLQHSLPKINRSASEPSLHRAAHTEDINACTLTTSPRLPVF

| IC50 [1] [µM] | IC50 [2] [µM] | IC50 [3] [µM] | Compound | other results |
| --- | --- | --- | --- | --- |
| > 50 | > 100 | > 100 | C[C@@H](NC(=O)OC(C)(C)C)C(=O)Nc1ccc2ncnc(Nc3cccc(C(F)(F)F)c3)c2c1 | – |
| > 50 | > 100 | – | CC(C)C[C@@H](NC(=O)OC(C)(C)C)C(=O)Nc1ccc2ncnc(Nc3cccc(C(F)(F)F)c3)c2c1 | – |
| > 50 | > 100 | – | CSCC[C@@H](NC(=O)OC(C)(C)C)C(=O)Nc1ccc2ncnc(Nc3cccc(Br)c3)c2c1 | – |
| > 50 | 51 | – | CC(C)(C)OC(=O)NCC(=O)Nc1ccc2ncnc(Nc3cccc(C(F)(F)F)c3)c2c1 | – |
| 33 | 23.7 | 0.017 | CC(C)(C)OC(=O)NCC(=O)Nc1ccc2ncnc(Nc3ccc(F)c(Cl)c3)c2c1 | – |
| 1.4 | – | 0.11 | COc1cc2c(Nc3ccc(NC(=O)c4ccccc4)cc3)ncnc2cc1OCCCN1CCOCC1 | Activity [4]: 1.09%; Activity [5]: 8.86% |
| > 50 | > 100 | – | CC[C@H](C)[C@@H](NC(=O)OC(C)(C)C)C(=O)Nc1ccc2ncnc(Nc3cccc(C(F)(F)F)c3)c2c1 | – |
| > 50 | > 100 | – | CSCC[C@@H](NC(=O)OC(C)(C)C)C(=O)Nc1ccc2ncnc(Nc3cccc(C(F)(F)F)c3)c2c1 | – |
| 25 | > 100 | 0.145 | CC(C)C[C@@H](NC(=O)OC(C)(C)C)C(=O)Nc1ccc2ncnc(Nc3cccc(Br)c3)c2c1 | – |
| 4.3 | > 100 | 1.02 | CC(C)[C@@H](NC(=O)OC(C)(C)C)C(=O)Nc1ccc2ncnc(Nc3cccc(C(F)(F)F)c3)c2c1 | IC50 [6]: > 100 µM; IC50 [7]: > 100 µM; IC50 [8]: 100 to 500 µM; IC50 [9]: > 100 µM |
| > 50 | > 100 | – | CC[C@H](C)[C@@H](NC(=O)OC(C)(C)C)C(=O)Nc1ccc2ncnc(Nc3ccc(F)c(Cl)c3)c2c1 | – |
| > 50 | > 100 | – | CSCC[C@@H](NC(=O)OC(C)(C)C)C(=O)Nc1ccc2ncnc(Nc3ccc(F)c(Cl)c3)c2c1 | – |
| > 50 | > 100 | > 100 | C[C@@H](NC(=O)OC(C)(C)C)C(=O)Nc1ccc2ncnc(Nc3cccc(Br)c3)c2c1 | – |
| > 50 | > 100 | – | Cc1cccc(C)c1Nc1ncnc2ccc(NC(=O)CNC(=O)OC(C)(C)C)cc12 | – |
| 13.8 | > 100 | 0.14 | CC(C)C[C@@H](NC(=O)OC(C)(C)C)C(=O)Nc1ccc2ncnc(Nc3ccc(F)c(Cl)c3)c2c1 | – |
| > 50 | > 100 | > 100 | C[C@@H](NC(=O)OC(C)(C)C)C(=O)Nc1ccc2ncnc(Nc3ccc(F)c(Cl)c3)c2c1 | – |
| 8.3 | 6.2 | – | CC(C)(C)OC(=O)NCC(=O)Nc1ccc2ncnc(Nc3cccc(Br)c3)c2c1 | Activity [10]: 6.38%; Activity [11]: Dose-dependent effect; Activity [12]: Active; Activity [13]: 2.08%; IC50 [6]: 7.35 µM; Activity [14]: Active; Activity [15]: Active; IC50 [7]: 17.3 µM; Activity [16]: 9.25%; Activity [17]: Dose-dependent effect; Activity [18]: Active; Activity [4]: 1.53%; IC50 [8]: > 100 µM; Activity [5]: 32.19%; Activity [19]: Active; IC50 [9]: 18.7 µM; Activity [20]: Active; Activity [21]: 1.96% |
| > 50 | > 100 | – | CC(C)[C@@H](NC(=O)OC(C)(C)C)C(=O)Nc1ccc2ncnc(Nc3cccc(Br)c3)c2c1 | – |
| 34 | > 100 | 0.0555 | CC[C@H](C)[C@@H](NC(=O)OC(C)(C)C)C(=O)Nc1ccc2ncnc(Nc3cccc(Br)c3)c2c1 | – |
| > 50 | > 100 | – | CC(C)[C@@H](NC(=O)OC(C)(C)C)C(=O)Nc1ccc2ncnc(Nc3ccc(F)c(Cl)c3)c2c1 | – |
